# Results taken from patent US10060892B2, “Tripodal nitrate receptor” (University of Oregon, priority 2013, dated 2018).
# What was measured:
# [1] = 1H NMR titration with TBA nitrate in 10% DMSO-d6/CDCl3; format: binding; details: 10% DMSO-d6/CDCl3, from Ka values
# Text: (§1) To simplify the mode of binding in these receptors, as well as to lower the association constant of nitrate and bromide to a measurable amount, other solvent systems were investigated. Low solubility of the tripodal receptors limited the solvent possibilities. We also aimed to maintain competition between binding of the anion and solvent molecules to provide further evidence for the strong binding of nitrate in competitive solvents, a critical feature for applications in environmental monitoring. […] In addition, DMSO is a strong hydrogen bond acceptor, thus a lower association constant would be expected. Initial upfield shifts, followed by downfield shifts of the urea protons were observed upon the addition of TBANO3 1 mM solutions of 1 in 2% DMSO-d6/CDCl3 and 5% DMSO-d6/CDCl3. […]
# (§2) Titrations in 10% DMSO-d6/CDCl3 were performed at a constant 1 mM concentration of 1. The change in chemical shift was monitored throughout the titration and fit to a 1:1 model using linear regression analysis. […] The binding constants of each anion investigated and the calculated total Δδ values based on the determined constant are presented in Table 2. […]
# Similar to 1, host:guest complexes of 2 were investigated through 1H NMR spectroscopy titrations in 10% DMSO-d6/CDCl3. […] The urea protons (H^a and H^b), nitrophenyl protons (H^c and H^d), and core proton (H^core) were monitored throughout the titrations. […]
# [2] = 1H NMR titration with TBA bromide in 10% DMSO-d6/CDCl3; format: binding; details: Br^− (TBA salt), 10% DMSO-d6/CDCl3, 1 mM receptor, 1:1 model
# Text: as §1, with “DMSO-d6/CDCl3. The titration curves indicate a more complicated system than a 1:1 model; however, the data still could not be fit to a standard model.” for “DMSO-d6/CDCl3.”
# as §2
# [3] = 1H NMR titration with TBA iodide in 10% DMSO-d6/CDCl3; format: binding; details: I^− (TBA salt), 10% DMSO-d6/CDCl3, 1 mM receptor, 1:1 model
# Text: as §1, with “DMSO-d6/CDCl3. The titration curves indicate a more complicated system than a 1:1 model; however, the data still could not be fit to a standard model.” for “DMSO-d6/CDCl3.”
# as §2
# [4] = 1H NMR titration with TBA chloride in acetone-d6; format: binding; details: Cl^− (TBA salt), acetone-d6, 0.5 mM receptor
# Procedure: (§3) Interaction of 1 with anions in solution was investigated by 1H NMR spectroscopy. Initial titration experiments were performed at 0.5 mM of 1 in acetone-d6 due to its limited solubility in other solvents, despite the potential solvent competition as a hydrogen bond acceptor. […] Changes in chemical shifts of H^c and H^d were also observed, but to a lesser extent, with H^d moving upfield. Large downfield shifts of the urea protons indicate hydrogen bonds of the ureas to the anion as the main mode of binding. Change in chemical shift corresponding to the addition of NO3^− or Br^− begins to maximize at approximately 0.5 equiv. of guest, indicating a possible 2:1 binding model in acetone.
# [5] = 1H NMR titration with TBA bromide in acetone-d6; details: Br^−, acetone-d6, 0.5 mM receptor; lower limit inferred from sharp binding curve, no reproducible fit
# Procedure: as §3
1:1 binding constant [4] [M⁻¹],SMILES,selectivity for nitrate over chloride [1],Association constant Ka [2],Association constant Ka [3],Ka [5] [M⁻¹]
,CC(C)(C)c1ccc(NC(=O)Nc2ccc([N+](=O)[O-])cc2)c(C#Cc2cc(C#Cc3cc(C(C)(C)C)ccc3NC(=O)Nc3ccc([N+](=O)[O-])cc3)cc(C#Cc3cc(C(C)(C)C)ccc3NC(=O)Nc3ccc([N+](=O)[O-])cc3)c2)c1 [compound 2],loss in selectivity for NO3^− over Cl^−,,,
8620 ± 1170,CC(C)(C)c1ccc(NC(=O)Nc2ccc([N+](=O)[O-])cc2)c(C#Cc2c(F)c(C#Cc3cc(C(C)(C)C)ccc3NC(=O)Nc3ccc([N+](=O)[O-])cc3)c(F)c(C#Cc3cc(C(C)(C)C)ccc3NC(=O)Nc3ccc([N+](=O)[O-])cc3)c2F)c1 [compound 1],moderate selectivity for nitrate,8320 (876) M^−1,755 (85) M^−1,> 104
